Reference: patent publication US9464081B2, “Pyrrolidine derivatives and their use as complement pathway modulators” (priority 2012, dated 2016)
pIC50: −log10 of the molar value.

The compounds below were run against Recombinant human factor D (Homo sapiens (Human), UniProt P00746) (assay: Human Complement Factor D Assay: Method 1). Details: 10 nM recombinant human factor D, substrate Z-Lys-thiobenzyl, fluorescence readout, read-out: IC50 Factor D inhibition.
Type: biochemical
Protocol: Human Complement Factor D Assay: Method 1
Recombinant human factor D (expressed in E. coli and purified using standard methods) at 10 nM concentration is incubated with test compound at various concentrations for 1 hour at room temperature in 0.1 M Hepes buffer, pH 7.5, containing 1 mM MgCl2, 1 M NaCl and 0.05% CHAPS. A synthetic substrate Z-Lys-thiobenzyl and 2,4-dinitrobenzenesulfonyl-fluoresceine are added to final concentrations of 200 μM and 25 μM, respectively. The increase in fluorescence is recorded at excitation of 485 nm and emission at 535 nm in a microplate spectrofluorimeter. IC50 values are calculated from percentage of inhibition of complement factor D-activity as a function of test compound concentration.
Factor D Inhibition Data Using Method 1 to Determine the IC50s.

Chain of Recombinant human factor D (P00746 26-253): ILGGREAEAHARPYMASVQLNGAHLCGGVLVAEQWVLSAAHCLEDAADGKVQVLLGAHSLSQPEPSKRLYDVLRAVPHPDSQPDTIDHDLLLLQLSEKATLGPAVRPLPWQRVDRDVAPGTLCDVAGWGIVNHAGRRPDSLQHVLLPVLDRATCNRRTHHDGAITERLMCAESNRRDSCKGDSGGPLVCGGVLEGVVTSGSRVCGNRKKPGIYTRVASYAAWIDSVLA

SMILES	pIC50
CC(C)=C(F)CNC(=O)[C@@H]1C[C@@H](F)CN1C(=O)Cn1nc(C(N)=O)c2ccccc21 [Example 7, 1-{2-[(2S,4R)-4-Fluoro-2-(2-fluoro-3-methyl-but-2-enylcarbamoyl)-pyrrolidin-1-yl]-2-oxo-ethyl}-1H-indazole-3-carboxylic acid amide]	7.25
CC(C)=C(F)CNC(=O)[C@@H]1C[C@H]2C[C@H]2N1C(=O)Cn1nc(C(N)=O)c2ccncc21 [Example 10, 1-{2-[(1R,3S,5R)-3-(2-Fluoro-3-methyl-but-2-enylcarbamoyl)-2-aza-bicyclo[3.1.0]hex-2-yl]-2-oxo-ethyl}-1H-pyrazolo[3,4-c]pyridine-3-carboxylic acid amide]	7.11
NC(=O)c1nn(CC(=O)N2[C@@H]3C[C@@H]3C[C@H]2C(=O)NC/C(F)=C/C(F)(F)F)c2ccccc12 [Example 20, 1-(2-oxo-2-((1R,3S,5R)-3-(((Z)-2,4,4,4-tetrafluorobut-2-en-1-yl)carbamoyl)-2-azabicyclo[3.1.0]hexan-2-yl)ethyl)-1H-indazole-3-carboxamide]	7.05
CC(C)=C(F)[C@H](C)NC(=O)[C@@H]1C[C@H]2C[C@H]2N1C(=O)Cn1nc(C(N)=O)c2ccccc21 [Example 21, 1-(2-((1R,3S,5R)-3-((S)-3-fluoro-4-methylpent-3-en-2-ylcarbamoyl)-2-azabicyclo[3.1.0]hexan-2-yl)-2-oxoethyl)-1H-indazole-3-carboxamide]	5.74
[2H]C([2H])([2H])C(=C(F)CNC(=O)[C@@H]1C[C@H]2C[C@H]2N1C(=O)Cn1nc(C(N)=O)c2ccccc21)C([2H])([2H])[2H] [Example 18, 1-{2-[(1R,3S,5R)-3-(2-Fluoro-3-di-(trideutero-methyl)-allylcarbamoyl)-2-aza-bicyclo[3.1.0]hex-2-yl]-2-oxo-ethyl}-1H-indazole-3-carboxylic acid amide]	7.30
CO[C@H]1[C@@H](C(=O)NCC(F)=C(C)C)N(C(=O)Cn2nc(C(N)=O)c3ccccc32)C[C@@H]1F [Example 8, 1-{2-[(2S,3S,4S)-4-Fluoro-2-(2-fluoro-3-methyl-but-2-enylcarbamoyl)-3-methoxy-pyrrolidin-1-yl]-2-oxo-ethyl}-1H-indazole-3-carboxylic acid amide]	7.23
CC(C)=C(F)CNC(=O)[C@@H]1C[C@H]2C[C@H]2N1C(=O)Cn1nc(C(N)=O)c2cc(C)ncc21 [Example 12, 1-{2-[(1R,3S,5R)-3-(2-Fluoro-3-methyl-but-2-enylcarbamoyl)-2-aza-bicyclo[3.1.0]hex-2-yl]-2-oxo-ethyl}-5-methyl-1H-pyrazolo[3,4-c]pyridine-3-carboxylic acid amide]	7.13
CC(=O)c1nn(CC(=O)N2[C@@H]3C[C@@H]3C[C@H]2C(=O)NCC(F)=C(C)C)c2ccc(OCc3ncccn3)cc12 [Example 16, (1R,3S,5R)-2-{2-[3-Acetyl-5-(pyrimidin-2-ylmethoxy)-indazol-1-yl]-acetyl}-2-aza-bicyclo[3.1.0]hexane-3-carboxylic acid (2-fluoro-3-methyl-but-2-enyl)-amide]	8.15
CC(C)=C(F)C(C)NC(=O)[C@@H]1C[C@H]2C[C@H]2N1C(=O)Cn1nc(C(N)=O)c2ccccc21 (stereo partly drawn) [Example 19, 1-{2-[(1R,3S,5R)-3-(2-Fluoro-1,3-dimethyl-but-2-enylcarbamoyl)-2-aza-bicyclo[3.1.0]hex-2-yl]-2-oxo-ethyl}-1H-indazole-3-carboxylic acid amide]	8.15
CC(C)=C(F)[C@@H](C)NC(=O)[C@@H]1C[C@H]2C[C@H]2N1C(=O)Cn1nc(C(N)=O)c2ccccc21 [Example 22, 1-(2-((1R,3S,5R)-3-((R)-3-fluoro-4-methylpent-3-en-2-ylcarbamoyl)-2-azabicyclo[3.1.0]hexan-2-yl)-2-oxoethyl)-1H-indazole-3-carboxamide]	8.22
CO[C@H]1[C@@H](C(=O)NCC(F)=C(C)C)N(C(=O)Cn2nc(C(N)=O)c3ccncc32)C[C@@H]1F [Example 5, 1-{2-[(2S,3S,4S)-4-Fluoro-2-(2-fluoro-3-methyl-but-2-enylcarbamoyl)-3-methoxy-pyrrolidin-1-yl]-2-oxo-ethyl}-1H-pyrazolo[3,4-c]pyridine-3-carboxylic acid amide]	6.60
NC(=O)c1nn(CC(=O)N2[C@@H]3C[C@@H]3C[C@H]2C(=O)NCC(F)=C2CCCC2)c2ccccc12 [Example 17, 1-{2-[(1R,3S,5R)-3-(2-Cyclopentylidene-2-fluoro-ethylcarbamoyl)-2-aza-bicyclo[3.1.0]hex-2-yl]-2-oxo-ethyl}-1H-indazole-3-carboxylic acid amide]	6.89
CC(C)=C(F)CNC(=O)[C@@H]1C[C@@]2(CO)C[C@H]2N1C(=O)Cn1nc(C(N)=O)c2ccccc21 [Example 6, 1-{2-[(1R,3S,5S)-3-(2-Fluoro-3-methyl-but-2-enylcarbamoyl)-5-hydroxymethyl-2-aza-bicyclo[3.1.0]hex-2-yl]-2-oxo-ethyl}-1H-indazole-3-carboxylic acid amide]	7.00
CC(C)=C(F)CNC(=O)[C@@H]1C[C@H]2C[C@H]2N1C(=O)Cn1nc(C(N)=O)c2ccc(Cl)cc21 [Example 1, 6-Chloro-1-{2-[(1R,3S,5R)-3-(2-fluoro-3-methyl-but-2-enylcarbamoyl)-2-aza-bicyclo[3.1.0]hex-2-yl]-2-oxo-ethyl}-1H-indazole-3-carboxylic acid amide]	7.48
CCc1cc2c(C(N)=O)nn(CC(=O)N3[C@@H]4C[C@@H]4C[C@H]3C(=O)NCC(F)=C(C)C)c2cn1 [Example 15, 5-Ethyl-1-{2-[(1R,3S,5R)-3-(2-fluoro-3-methyl-but-2-enylcarbamoyl)-2-aza-bicyclo[3.1.0]hex-2-yl]-2-oxo-ethyl}-1H-pyrazolo[3,4-c]pyridine-3-carboxylic acid amide]	7.37
CC(C)=C(F)CNC(=O)[C@@H]1C[C@H]2C[C@H]2N1C(=O)Cn1nc(C(N)=O)c2ccnc(C)c21 [Example 14, 1-{2-[(1R,3S,5R)-3-(2-Fluoro-3-methyl-but-2-enylcarbamoyl)-2-aza-bicyclo[3.1.0]hex-2-yl]-2-oxo-ethyl}-7-methyl-1H-pyrazolo[3,4-c]pyridine-3-carboxylic acid amide]	7.20
CC(=O)c1nn(CC(=O)N2[C@@H]3C[C@@H]3C[C@H]2C(=O)NCC(F)=C(C)C)c2ccccc12 [Example 11, (1R,3S,5R)-2-[2-(3-Acetyl-indazol-1-yl)-acetyl]-2-aza-bicyclo[3.1.0]hexane-3-carboxylic acid (2-fluoro-3-methyl-but-2-enyl)-amide]	7.72
CC(C)=C(F)CNC(=O)[C@@H]1C[C@H]2C[C@H]2N1C(=O)Cn1nc(C(N)=O)c2ccc(C)cc21 [Example 4, 1-{2-[(1R,3S,5R)-3-(2-Fluoro-3-methyl-but-2-enylcarbamoyl)-2-aza-bicyclo[3.1.0]hex-2-yl]-2-oxo-ethyl}-6-methyl-1H-indazole-3-carboxylic acid amide]	6.35
CC(C)=C(F)CNC(=O)[C@@H]1C[C@@H](F)CN1C(=O)Cn1nc(C(N)=O)c2ccncc21 [Example 3, 1-{2-[(2S,4R)-4-Fluoro-2-(2-fluoro-3-methyl-but-2-enylcarbamoyl)-pyrrolidin-1-yl]-2-oxo-ethyl}-1H-pyrazolo[3,4-c]pyridine-3-carboxylic acid amide]	6.59
CC(C)=C(F)CNC(=O)[C@@H]1C[C@H]2C[C@H]2N1C(=O)Cn1nc(C(N)=O)c2ccccc21 [Example 2, 1-{2-[(1R,3S,5R)-3-(2-Fluoro-3-methyl-but-2-enylcarbamoyl)-2-aza-bicyclo[3.1.0]hex-2-yl]-2-oxo-thyl}-1H-indazole-3-carboxylic acid amide]	7.46
CC(C)=C(F)CNC(=O)[C@@H]1C[C@H]2C[C@H]2N1C(=O)Cn1nc(C(N)=O)c2cc(C)nc(C)c21 [Example 9, 1-{2-[(1R,3S,5R)-3-(2-Fluoro-3-methyl-but-2-enylcarbamoyl)-2-aza-bicyclo[3.1.0]hex-2-yl]-2-oxo-ethyl}-5,7-dimethyl-1H-pyrazolo[3,4-c]pyridine-3-carboxylic acid amide]	6.45
CC(=O)c1nn(CC(=O)N2[C@@H]3C[C@@H]3C[C@H]2C(=O)NCC(F)=C(C)C)c2cnccc12 [Example 13, (1R,3S,5R)-2-[2-(3-Acetyl-pyrazolo[3,4-c]pyridin-1-yl)-acetyl]-2-aza-bicyclo[3.1.0]hexane-3-carboxylic acid (2-fluoro-3-methyl-but-2-enyl)-amide]	7.43
